Read-outs that look alike come from different tables or passages of the source.
Tests used:
RRMS patients = details: cited from earlier work
[1] = system: Relapsing-remitting multiple sclerosis patients (FORTE cohort); test: Annualized relapse rate in FORTE cohort patients genetically predicted as responders/non-responders by predictive models; format: in vivo, human
Experimental: Relapsing-remitting multiple sclerosis patients were treated with either 20 mg GA or 40 mg GA daily in the Teva FORTE clinical trial (www.medicalnewstoday.com/articles/48863.php). Blood samples were drawn from each subject that signed an informed consent for the pharmacogenetic study and analyzed as described below.
A clinical relapse was defined as the appearance of one or more new neurological abnormalities or the reappearance of one or more previously observed neurological abnormalities.
To find genotypic profiles that discriminate responders (R) from the non-responders (NR) to the treatment, we used a backward stepwise logistic regression procedure on the SNPs that emerged significant using the narrow definition (e.g., at p-value=10^−4 or lower). Other models were generated based on combinatorial optimization heuristics. Once a pool of models was created, selected models were chosen based on the low value of Akaike's Information Criterion (AIC) and low number SNPs in the model. The model chosen in the previous step went through “Leave one out” cross validation, searching for high values of the Area Under the ROC curve.
The response probability p(Response) of a specific patient was calculated according to the tables and formulas indicated for each specific model.
Patients with p(Response) above 0.5 were predicted to be responders and patients with p(Response) below 0.5 were predicted to be non-responders. When the model was retrospectively applied to the full cohort of 599 FORTE patients, we observed that the annualized relapse rate (ARR) in patients genetically predicted as responders was reduced by 62% compared to all patients, and by 76% compared to non-responders (p<0.0001). When we applied the model retrospectively to a second independent cohort of 79 patients, the model could identify subpopulations genetically predicted to be responders and non-responders with respectively lower (for responders) and higher (for non-responders) relapse rate. In the placebo-treated arm no specific pattern could be observed.
The models were retrospectively applied to the full cohort of 599 FORTE patients using different predictive thresholds. The ratios between the Annualized Relapse Rate (ARR) of genetically predicted responder patients (R) compared to the average ARR in genetically predicted non-responder patients (NR), and the ratios between the average ARE observed in the genetically predicted responder patients (R) compared to average ARR in the whole study population (All), according to each predictive threshold or two predictive thresholds, are presented in table 37. […]

[2] = system: multiple sclerosis patients (European/Canadian study); test: Annualized relapse rate in European/Canadian study patients genetically predicted as responders/non-responders by FM1 model; format: in vivo, human; details: 0.8 threshold
From the text: In comparison, the average ARR in either placebo-treated patients or non treated patients (from European/Canadian study and CORAL, respectively) genetically predicted as responders was −7% and 26% lower, respectively, than in patients predicted as Non-Responders and 10% and 11% lower than in the whole study population. The reduction in average ARR by GA over placebo-treated patients in the responders population in the European/Canadian study was 79%.

RRMS subjects = details: cited from earlier work
[3] = FM1 model, 0.8 threshold, FORTE
[4] = model GM2068, FORTE cohort, whole study population (All)
[5] = model GM2090, FORTE cohort, whole study population (All)
[6] = model GM2094, FORTE cohort, whole study population (All)
[7] = model GM2277, FORTE cohort, whole study population (All)

Substance: Glatiramer acetate [GA]
- response rate (RRMS patients; DRB1*1501 carriers): 81.8%
- response rate (RRMS patients; non-carriers of DRB1*1501): 39.4%
- response rate (RRMS patients; whole study population): 50%
- average ARR in GA-treated predicted responders lower than in patients predicted as non-responders [1, 3]: 76%
- average ARR in GA-treated predicted responders lower than in the whole study population [1, 3]: 64%
- reduction of annualized relapse rate (ARR) in genetically predicted responders compared to all patients ([1]; FM1 model, p(Response) threshold 0.5, full cohort of 599 FORTE patients): 62%
- reduction of annualized relapse rate (ARR) in genetically predicted responders compared to non-responders ([1]; FM1 model, p(Response) threshold 0.5, full cohort of 599 FORTE patients, p<0.0001): 76%
- ARR Vs. all ([1]; model FM1, response prediction All): 100%
- ARR ([1]; model FM1, response prediction All (whole FORTE study population, threshold NA)): 0.241
- ARR Vs. all ([1]; model FM1a, response prediction All): 100%
- ARR ([1]; model FM1a, response prediction All (whole FORTE study population, threshold NA)): 0.245
- ARR Vs. all ([1]; model FM2, response prediction All): 100%
- ARR ([1]; model FM2, response prediction All (whole FORTE study population, threshold NA)): 0.245
- ARR Vs. all ([1]; model GM1003, response prediction All): 100%
- ARR ([1]; model GM1003, response prediction All (whole FORTE study population, threshold NA)): 0.26
- ARR Vs. all ([1]; model GM1006, whole study population (All)): 100%
- ARR ([1]; model GM1006, whole study population (All), FORTE cohort, 599 patients): 0.253
- ARR Vs. all ([1]; model GM1011, whole study population (All)): 100%
- ARR ([1]; model GM1011, whole study population (All), FORTE cohort, 599 patients): 0.256
- ARR Vs. all ([1]; model GM1012, whole study population (All)): 100%
- ARR ([1]; model GM1012, whole study population (All), FORTE cohort, 599 patients): 0.251
- ARR Vs. all ([1]; model GM2004, whole study population (All)): 100%
- ARR ([1]; model GM2004, whole study population (All), FORTE cohort, 599 patients): 0.255
- ARR [1, 4]: 0.256
- ARR Vs. all [1, 4]: 100%
- ARR [1, 5]: 0.254
- ARR Vs. all [1, 5]: 100%
- ARR [1, 6]: 0.251
- ARR Vs. all [1, 6]: 100%
- ARR [1, 7]: 0.258
- ARR Vs. all [1, 7]: 100%
- ARR ([1]; model GM2338, response prediction All (whole study population), threshold NA, FORTE cohort): 0.251
- ARR Vs. all ([1]; model GM2338, response prediction All, threshold NA, FORTE cohort): 100%
- ARR ([1]; model GM3102, response prediction All (whole study population), threshold NA, FORTE cohort): 0.263
- ARR Vs. all ([1]; model GM3102, response prediction All, threshold NA, FORTE cohort): 100%
- ARR ([1]; model GM3150, response prediction All (whole study population), threshold NA, FORTE cohort): 0.26
- ARR Vs. all ([1]; model GM3150, response prediction All, threshold NA, FORTE cohort): 100%
- ARR ([1]; model GM3332, response prediction All (whole study population), threshold NA, FORTE cohort): 0.262
- ARR Vs. all ([1]; model GM3332, response prediction All, threshold NA, FORTE cohort): 100%
- average ARR in GA-treated predicted responders lower than in patients predicted as non-responders [2]: 81%
- average ARR in GA-treated predicted responders lower than in the whole study population [2]: 77%
- reduction in average ARR by GA over placebo-treated patients in the responders population [2]: 79%
- tolerability (RRMS subjects; daily standard dose of 20 mg): generally well tolerated
- reduction of relapse rate compared with placebo (RRMS subjects; largest controlled study, GA 20 mg, RRMS): 32%
- relapse rate (RRMS subjects; largest controlled study, under GA 20 mg (1.98 under placebo)): 1.34
- median cumulative number of Gd-enhancing lesions (RRMS subjects; over 9 months of treatment, 20 mg group (17 under placebo)): 11 lesions

Source: US9499868B2, “Determination of single nucleotide polymorphisms useful to predict response for glatiramer acetate” (TEVA PHARMACEUTICAL INDUSTRIES, LTD., priority 2011, dated 2016)
